Test results reported in US8420598B2, “Mono modified exendin with polyethylene glycol or its derivatives and uses thereof” (B & L Delipharm Corp., priority 2007, dated 2013).
Read-outs that look alike come from different tables or passages of the source.

Tests used:
[1] = rat, in vivo, sc
Method: SD rats weighing 200 g were subcutaneously injected with samples at a dose of 1 nmol/rat (4.18 μg/rat), followed by sampling blood through a tube inserted into the jugular vein. The blood samples were monitored for drug level using an ELISA kit.

[2] = test system: db/db mice; assay: Animal model test: oral glucose tolerance after s.c. injection; type: in vivo; details: 1 nmol/kg s.c. 30 min before oral glucose, FIG. 8
Method: 30 min before, at the time of, and 15, 30, 60, 120 and 180 min after the oral administration of glucose, blood samples were taken from the tail vein and monitored for glucose level.

[3] = test system: pancreatic islet cells of Sprague Dawley rats; assay: Assay for promoting insulin secretion (insulin ELISA); type: cell-based; details: for EC50 / insulin secretory capacity: rat islet cells, 0.1-100 nM; for EC50: 16.7 mM glucose, 2 hours; for insulin secretory capacity: FIG. 5
Method: Cells used for this assay were pancreatic islet cells of Sprague Dawley rats, which could be isolated by collagenase digestion and then Ficoll gradient centrifugation. After being cultured for 2˜3 days in an incubator, the isolated pancreatic islet cells were suspended in 1 ml of KRH buffer (16.7 mM glucose) at a density of 20 cells per well into 24-well plates. […] Then, […] of the culture was taken from each well and analyzed for insulin level using an insulin ELISA kit.

[4] = test system: db/db mice; assay: Measurement of anti-diabetic activity in animals (blood glucose monitoring); type: in vivo; details: for time blood glucose kept at normal levels (<150 mg/dL) after injection: s.c., same dosage, db/db mice
[5] = rat, in vivo, iv

Substance: Lys^27-PEG2k-exendin-4: exendin-4 modified at lysine-27 with 2 kDa PEG (mPEG-SPA), Example 2
- time to reach basal line (<2 ng/mL) after administration [1]: 4 h
- activity by area under the glucose curve 0 to 180 min [2]: activity similar to that of natural exendin-4
- EC50 [3]: 3.11 nM
- insulin secretory capacity [3]: superior to that of the other modified exendin-4, and similar to that of natural exendin-4
- time blood glucose kept at normal levels (<150 mg/dL) after injection [4]: about 6 hours

Substance: N^ter-PEG2k-exendin-4: exendin-4 modified at the N-terminus with 2 kDa mPEG-propionaldehyde, Example 1
- activity by area under the glucose curve 0 to 180 min [2]: low effects
- EC50 [3]: 136 nM
- insulin secretory capacity [3]: low insulin secretory capacity

Substance: PEG5k-exendin-4: exendin-4 modified at lysine-27 with 5 kDa mPEG-SPA, Example 2
- time blood glucose kept at normal levels (<150 mg/dL) after injection [4]: 12 h

Substance: PEG10k-exendin-4: exendin-4 modified at lysine-27 with 10 kDa mPEG-SPA, Example 2
- time blood glucose kept at normal levels (<150 mg/dL) after injection [4]: 18 h

Substance: PEG20k-Exendin-4 (bi-branched): exendin-4 modified with 20 kDa bi-branched PEG, Example 3
- time blood glucose kept at normal levels (<150 mg/dL) after injection [4]: about 8 hours
- AUC [5]: 5717 ± 1015 ng·h/mL
- Elimination Half Life [5]: 28.0 ± 10.4 h
- Volume of Distribution [5]: 25.45 ± 16.84 mL

Substance: PEG20k-exendin-4: exendin-4 modified at lysine-27 with 20 kDa mPEG-SPA, Example 2
- Elimination Half Life [1]: 22.0 ± 1.7 h
- residual activity (insulin secretion) ([3]; 10 nM, relative to natural exendin-4, FIG. 9): ≥ 40%
- time blood glucose kept at normal levels (<150 mg/dL) after injection [4]: about 36 hours

Substance: PEG23k-Exendin-4 (tri-branched): exendin-4 modified at lysine-27 with 23 kDa tri-branched PEG, Example 3
- promotion of insulin secretion, dose dependence ([3]; 0.1, 1, 10 and 100 nM, FIG. 16): promote insulin secretion in a dose-dependent manner
- duration of medicinal efficacy ([4]; dose of 5 nmol/kg): 12 to 18 h
- duration of medicinal efficacy ([4]; dose of 10 nmol/kg): 36 to 48 h
- duration of medicinal efficacy ([4]; dose of 20 nmol/kg): 72 to 96 h
- duration of useful medicinal effects ([4]; dose of 50 nmol/kg): ≤ 120 h
- AUC [5]: 7659 ± 1365 ng·h/mL
- Elimination Half Life [5]: 25.1 ± 9.1 h
- Volume of Distribution [5]: 9.41 ± 1.57 mL
